Results on 28 compounds are retold here after patent US20090227575A1, “7H-PYRROLO[2,3-H]QUINAZOLINE COMPOUNDS, THEIR USE AS mTOR KINASE AND PI3 KINASE INHIBITORS, AND THEIR [sequence]” (Wyeth, priority 2008, published 2009).

Where only a bound is given, the exact number is not on record here.

Holding throughout (assay type): biochemical
The target in experiment [1] is human SMG-1 (hSMG-1) (Homo sapiens, UniProt Q96Q15). Description: hSMG-1 kinase assay (DELFIA). To be noted: read-out: hSMG1 IC50.
The target in experiment [2] is PI3K-alpha (Homo sapiens, UniProt P42336). Description: PI3K-alpha fluorescence polarization assay. To be noted: read-out: PI3 Kinase α IC50. The essentials: (§1)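 Diluted enzyme and compound (1% DMSO) reacted with diC8 PIP2 and ATP substrate in 20 mM HEPES pH 7.5, 2 mM MgCl2, 0.05% CHAPS for 30–60 min. Stopped with EDTA buffer holding 10 nM TAMRA probe and 70 nM GST-GRP. FP (mP) read after 30–90 min against zero-time and no-enzyme controls.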
(Fluorescence polarisation rises when a labelled molecule tumbles more slowly, as on binding a larger partner.)

Experiment [3] concerns the target PI3K-gamma (Homo sapiens, UniProt P48736). The experiment can be described thus: PI3K-gamma fluorescence polarization assay. To be noted: read-out: PI3 Kinase γ IC50. A digest of the protocol: as §1
In experiment [4] the target is Human mTOR (Homo sapiens, UniProt P42345). Description: mTOR kinase assay (DELFIA format, purified enzyme). Details: FLAG. To be noted: read-out: TOR Kinase IC50.

Chain of PI3K-gamma (P48736 whole entry, species assumed): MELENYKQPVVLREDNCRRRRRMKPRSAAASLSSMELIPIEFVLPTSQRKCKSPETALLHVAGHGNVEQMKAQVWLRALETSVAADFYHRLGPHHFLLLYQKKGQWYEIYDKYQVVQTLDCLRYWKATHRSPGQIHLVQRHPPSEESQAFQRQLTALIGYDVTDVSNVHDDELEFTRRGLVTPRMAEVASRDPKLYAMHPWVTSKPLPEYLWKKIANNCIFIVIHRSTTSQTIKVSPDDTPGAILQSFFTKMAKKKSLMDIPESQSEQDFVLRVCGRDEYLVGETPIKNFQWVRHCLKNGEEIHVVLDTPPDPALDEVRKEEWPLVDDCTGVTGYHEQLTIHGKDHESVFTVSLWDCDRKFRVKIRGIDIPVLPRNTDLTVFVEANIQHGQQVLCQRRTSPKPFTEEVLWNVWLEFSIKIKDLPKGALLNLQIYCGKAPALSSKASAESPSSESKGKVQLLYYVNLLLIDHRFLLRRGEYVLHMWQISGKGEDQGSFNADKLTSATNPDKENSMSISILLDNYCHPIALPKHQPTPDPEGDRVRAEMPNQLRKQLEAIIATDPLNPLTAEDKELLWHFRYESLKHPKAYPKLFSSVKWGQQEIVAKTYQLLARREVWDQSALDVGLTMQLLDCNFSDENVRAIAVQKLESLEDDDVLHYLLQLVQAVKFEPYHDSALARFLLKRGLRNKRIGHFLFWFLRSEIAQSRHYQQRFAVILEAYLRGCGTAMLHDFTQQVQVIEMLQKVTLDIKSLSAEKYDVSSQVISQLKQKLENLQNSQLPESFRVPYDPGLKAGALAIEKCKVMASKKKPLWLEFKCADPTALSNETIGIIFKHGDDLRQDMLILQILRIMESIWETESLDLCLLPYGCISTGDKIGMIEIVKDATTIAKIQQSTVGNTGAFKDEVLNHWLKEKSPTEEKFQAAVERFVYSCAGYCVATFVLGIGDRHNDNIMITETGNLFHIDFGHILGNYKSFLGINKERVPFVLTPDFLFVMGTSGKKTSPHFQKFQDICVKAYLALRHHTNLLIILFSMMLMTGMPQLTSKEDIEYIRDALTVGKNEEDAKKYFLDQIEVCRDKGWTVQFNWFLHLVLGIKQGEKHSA
Chain of human SMG-1 (hSMG-1) (Q96Q15 whole entry): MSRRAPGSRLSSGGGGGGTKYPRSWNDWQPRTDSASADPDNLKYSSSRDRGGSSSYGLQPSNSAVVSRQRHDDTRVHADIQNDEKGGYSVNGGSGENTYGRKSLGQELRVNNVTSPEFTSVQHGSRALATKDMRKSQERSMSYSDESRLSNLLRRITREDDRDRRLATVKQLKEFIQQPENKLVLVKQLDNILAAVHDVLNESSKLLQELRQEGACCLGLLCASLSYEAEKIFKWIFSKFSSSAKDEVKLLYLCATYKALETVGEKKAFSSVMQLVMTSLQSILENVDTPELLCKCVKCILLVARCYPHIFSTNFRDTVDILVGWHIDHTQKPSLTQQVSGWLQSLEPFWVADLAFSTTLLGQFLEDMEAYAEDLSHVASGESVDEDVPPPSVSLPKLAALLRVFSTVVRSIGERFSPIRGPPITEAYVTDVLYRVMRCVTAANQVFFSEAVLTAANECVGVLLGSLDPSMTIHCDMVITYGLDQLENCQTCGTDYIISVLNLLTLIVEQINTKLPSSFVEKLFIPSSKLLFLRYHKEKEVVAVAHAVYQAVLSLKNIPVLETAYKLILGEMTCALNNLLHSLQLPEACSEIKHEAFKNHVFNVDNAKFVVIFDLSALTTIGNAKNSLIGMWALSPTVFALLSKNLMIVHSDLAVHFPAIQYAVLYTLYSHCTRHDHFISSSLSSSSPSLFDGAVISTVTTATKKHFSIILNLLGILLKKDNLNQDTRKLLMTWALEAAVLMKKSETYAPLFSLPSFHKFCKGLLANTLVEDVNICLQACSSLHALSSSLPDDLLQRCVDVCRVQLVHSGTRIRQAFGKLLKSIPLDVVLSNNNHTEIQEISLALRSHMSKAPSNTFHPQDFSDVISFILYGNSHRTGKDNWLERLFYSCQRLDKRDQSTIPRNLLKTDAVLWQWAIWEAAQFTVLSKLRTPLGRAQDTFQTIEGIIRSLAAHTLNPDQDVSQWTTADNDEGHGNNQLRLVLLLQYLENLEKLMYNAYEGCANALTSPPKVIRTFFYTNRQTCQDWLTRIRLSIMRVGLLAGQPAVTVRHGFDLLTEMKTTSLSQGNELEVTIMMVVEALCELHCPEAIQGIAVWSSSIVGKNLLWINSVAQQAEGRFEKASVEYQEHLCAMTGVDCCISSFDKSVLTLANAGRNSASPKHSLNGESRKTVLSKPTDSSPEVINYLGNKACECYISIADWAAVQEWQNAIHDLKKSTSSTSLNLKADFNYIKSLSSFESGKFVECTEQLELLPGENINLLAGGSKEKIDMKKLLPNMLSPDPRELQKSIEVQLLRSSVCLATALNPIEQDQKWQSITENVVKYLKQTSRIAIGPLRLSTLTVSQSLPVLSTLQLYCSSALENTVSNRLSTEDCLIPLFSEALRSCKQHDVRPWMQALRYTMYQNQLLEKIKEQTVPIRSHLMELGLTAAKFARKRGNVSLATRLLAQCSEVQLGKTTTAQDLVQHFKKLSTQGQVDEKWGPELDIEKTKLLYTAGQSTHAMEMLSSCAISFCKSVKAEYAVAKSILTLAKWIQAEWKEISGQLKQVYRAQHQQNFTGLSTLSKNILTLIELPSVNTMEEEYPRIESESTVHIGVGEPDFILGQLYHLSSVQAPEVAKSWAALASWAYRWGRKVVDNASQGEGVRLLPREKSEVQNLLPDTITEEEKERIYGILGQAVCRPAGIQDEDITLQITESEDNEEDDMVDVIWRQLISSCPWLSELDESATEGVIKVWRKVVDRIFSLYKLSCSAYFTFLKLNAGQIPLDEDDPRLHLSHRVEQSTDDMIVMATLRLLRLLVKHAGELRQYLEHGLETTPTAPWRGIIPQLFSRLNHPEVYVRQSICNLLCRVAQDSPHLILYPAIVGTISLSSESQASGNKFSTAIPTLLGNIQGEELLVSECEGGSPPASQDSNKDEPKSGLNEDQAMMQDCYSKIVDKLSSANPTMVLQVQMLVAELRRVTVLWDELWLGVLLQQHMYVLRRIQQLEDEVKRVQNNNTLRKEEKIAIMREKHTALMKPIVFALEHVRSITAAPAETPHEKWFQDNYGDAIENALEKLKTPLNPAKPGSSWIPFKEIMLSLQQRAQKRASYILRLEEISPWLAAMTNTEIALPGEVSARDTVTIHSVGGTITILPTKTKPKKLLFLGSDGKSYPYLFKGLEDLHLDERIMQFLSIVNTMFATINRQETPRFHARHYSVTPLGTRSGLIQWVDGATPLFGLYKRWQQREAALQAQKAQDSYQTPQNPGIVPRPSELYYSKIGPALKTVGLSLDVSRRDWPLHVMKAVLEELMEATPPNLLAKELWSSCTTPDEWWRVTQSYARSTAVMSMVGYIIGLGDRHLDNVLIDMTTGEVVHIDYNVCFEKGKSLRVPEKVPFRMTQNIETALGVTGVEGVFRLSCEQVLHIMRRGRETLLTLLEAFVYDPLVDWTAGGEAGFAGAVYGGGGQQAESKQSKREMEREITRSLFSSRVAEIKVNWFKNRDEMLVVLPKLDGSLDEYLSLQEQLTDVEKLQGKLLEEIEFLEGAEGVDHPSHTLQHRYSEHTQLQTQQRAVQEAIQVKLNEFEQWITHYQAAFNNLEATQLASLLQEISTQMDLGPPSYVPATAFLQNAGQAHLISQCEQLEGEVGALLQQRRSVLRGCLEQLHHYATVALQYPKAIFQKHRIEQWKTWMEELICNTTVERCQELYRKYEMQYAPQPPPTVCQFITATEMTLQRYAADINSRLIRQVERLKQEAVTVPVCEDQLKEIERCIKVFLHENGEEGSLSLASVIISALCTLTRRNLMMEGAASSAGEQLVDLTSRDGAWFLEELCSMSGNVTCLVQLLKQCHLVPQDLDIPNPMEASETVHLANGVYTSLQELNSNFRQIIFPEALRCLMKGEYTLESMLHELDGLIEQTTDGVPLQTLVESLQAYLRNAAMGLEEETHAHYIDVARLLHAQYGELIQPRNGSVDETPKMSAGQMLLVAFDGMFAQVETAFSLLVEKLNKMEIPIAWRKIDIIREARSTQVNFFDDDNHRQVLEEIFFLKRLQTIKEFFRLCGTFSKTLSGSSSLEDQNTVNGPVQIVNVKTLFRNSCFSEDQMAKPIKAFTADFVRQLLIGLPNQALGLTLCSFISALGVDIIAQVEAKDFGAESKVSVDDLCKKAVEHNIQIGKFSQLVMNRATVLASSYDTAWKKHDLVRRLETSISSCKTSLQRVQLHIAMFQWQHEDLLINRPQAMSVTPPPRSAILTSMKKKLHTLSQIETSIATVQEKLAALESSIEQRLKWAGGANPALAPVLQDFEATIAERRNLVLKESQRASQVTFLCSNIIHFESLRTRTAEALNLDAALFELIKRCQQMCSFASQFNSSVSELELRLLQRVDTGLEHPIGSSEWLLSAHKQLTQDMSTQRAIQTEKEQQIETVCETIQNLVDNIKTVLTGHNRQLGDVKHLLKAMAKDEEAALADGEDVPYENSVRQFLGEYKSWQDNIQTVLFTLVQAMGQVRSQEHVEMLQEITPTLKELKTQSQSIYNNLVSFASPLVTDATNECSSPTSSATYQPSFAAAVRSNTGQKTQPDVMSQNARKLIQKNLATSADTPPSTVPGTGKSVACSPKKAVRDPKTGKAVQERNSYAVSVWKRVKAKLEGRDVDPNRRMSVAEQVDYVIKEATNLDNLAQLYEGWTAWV

In general, IC50 refers to the midpoint of a concentration-inhibition curve. With `Cn1ccc2c3nc(-c4cccc(NC(=O)Nc5ccncc5)c4)nc(N4CCOCC4)c3ccc21` [Example 122, 1-[3-(7-methyl-4-morpholin-4-yl-7H-pyrrolo[2,3-h]quinazolin-2-yl)phenyl]-3-pyridin-4-ylurea], the IC50 in experiment [1] turned out to be 6.5 µM.

As for `CS(=O)(=O)n1ccc2c3nc(-c4ccc(NC(=O)C5CC5)cc4)nc(N4CCOCC4)c3ccc21` [Example 87, N-{4-[7-(methylsulfonyl)-4-morpholin-4-yl-7H-pyrrolo[2,3-h]quinazolin-2-yl]phenyl}cyclopropanecarboxamide], the IC50 in experiment [1] was determined as 5.6 µM.

In the case of `CS(=O)(=O)n1ccc2c3nc(-c4ccc(NC(=O)Nc5ccccc5)cc4)nc(N4CCOCC4)c3ccc21` [Example 84, 1-{4-[7-(methylsulfonyl)-4-morpholin-4-yl-7H-pyrrolo[2,3-h]quinazolin-2-yl]phenyl}-3-phenylurea], in experiment [1], the IC50 was found to be 0.475 µM.

Take `CCNC(=O)Nc1ccc(-c2nc(N3CCOCC3)c3ccc4c(ccn4CCN(C)C)c3n2)cc1` [Example 94, 1-(4-{7-[2-(dimethylamino)ethyl]-4-morpholin-4-yl-7H-pyrrolo[2,3-h]quinazolin-2-yl}phenyl)-3-ethylurea]: in experiment [1], the concentration for half-maximal inhibition (IC50) is 2 µM.

As to `CCC(=O)Nc1ccc(-c2nc(N3CCOCC3)c3ccc4c(ccn4S(C)(=O)=O)c3n2)cc1` [Example 91, N-{4-[7-(methylsulfonyl)-4-morpholin-4-yl-7H-pyrrolo[2,3-h]quinazolin-2-yl]phenyl}propanamide], the IC50 in experiment [1] stood at 6.1 µM.

`CCOC(=O)Nc1ccc(-c2nc(N3CCOCC3)c3ccc4c(ccn4S(C)(=O)=O)c3n2)cc1` [Example 86, ethyl {4-[7-(methylsulfonyl)-4-morpholin-4-yl-7H-pyrrolo[2,3-h]quinazolin-2-yl]phenyl}carbamate]: in experiment [1], the 50% inhibitory concentration (IC50) is 15.5 µM.

Regarding `CCOC(=O)Nc1ccc(-c2nc(N3CCOCC3)c3ccc4c(ccn4CCN(C)C)c3n2)cc1` [Example 93, ethyl (4-{7-[2-(dimethylamino)ethyl]-4-morpholin-4-yl-7H-pyrrolo[2,3-h]quinazolin-2-yl}phenyl)carbamate], the IC50 in experiment [1] is above 20 µM.

`CN(C)CCn1ccc2c3nc(-c4cccc(OCc5ccccc5)c4)nc(N4CCOCC4)c3ccc21` [Example 31, 2-{2-[3-(benzyloxy)phenyl]-4-morpholin-4-yl-7H-pyrrolo[2,3-h]quinazolin-7-yl}-N,N-dimethylethanamine]: the figures for the half-maximal inhibitory concentration (IC50) in experiment [2], in experiment [3] and in experiment [4] were 4030 nM, 2.48 µM and above 20000 nM, respectively.

For `CC(O)c1cccc(-c2nc(N3CCOCC3)c3ccc4c(ccn4C)c3n2)c1` (stereo not shown) [Example 24, 1-[3-(7-methyl-4-morpholin-4-yl-7H-pyrrolo[2,3-h]quinazolin-2-yl)phenyl]ethanol], the IC50 in experiment [2] is 2350 nM; in experiment [3] it was above 10 µM; in experiment [4], 1650 nM.

In the case of `CCOC(=O)Nc1ccc(-c2nc(N3CCOCC3)c3ccc4c(ccn4C)c3n2)cc1` [Example 20, ethyl [4-(7-methyl-4-morpholin-4-yl-7H-pyrrolo[2,3-h]quinazolin-2-yl)phenyl]carbamate], the IC50 in experiment [2] came to 3310 nM; in experiment [3], 2.09 µM; in experiment [4] it was 390 nM.

As for `CN(C)CCNC(=O)Nc1ccc(-c2nc(N3CCOCC3)c3ccc4c(ccn4C)c3n2)cc1` [Example 4, 1-[2-(dimethylamino)ethyl]-3-[4-(7-methyl-4-morpholin-4-yl-7H-pyrrolo[2,3-h]quinazolin-2-yl)phenyl]urea], the IC50 was found to be 728 nM in experiment [2], 2.83 µM in experiment [3] and 2050 nM in experiment [4].

`CNC(=O)Nc1ccc(-c2nc(N3CCOCC3)c3ccc4c(ccn4C)c3n2)cc1` [Example 2, 1-methyl-3-[4-(7-methyl-4-morpholin-4-yl-7H-pyrrolo[2,3h]quinazolin-2-yl)phenyl]urea]: the half-maximal inhibitory concentration (IC50) was found to be 428 nM in experiment [2], 5.39 µM in experiment [3] and 66 nM in experiment [4].

Take `OCc1cccc(-c2nc(N3CCOCC3)c3ccc4c(ccn4Cc4ccccc4)c3n2)c1` [Example 83, [3-(7-benzyl-4-morpholin-4-yl-7H-pyrrolo[2,3-h]quinazolin-2-yl)phenyl]methanol]: the IC50 in experiment [2] was 123 nM; in experiment [3], 0.32 µM; in experiment [4] it was 1700 nM.

Consider `CCC(O)c1cccc(-c2nc(N3CCOCC3)c3ccc4c(ccn4C)c3n2)c1` (stereo not shown) [Example 25, 1-[3-(7-methyl-4-morpholin-4-yl-7H-pyrrolo[2,3-h]quinazolin-2-yl)phenyl]propan-1-ol], for which the IC50 in experiment [2] was 7550 nM; in experiment [3], above 10 µM; in experiment [4], 3050 nM.

With `O=C(OCc1ccccc1)N1CCC(S(=O)(=O)n2ccc3c4nc(-c5cccc(O)c5)nc(N5CCOCC5)c4ccc32)CC1` [Example 66, benzyl 4-{[2-(3-hydroxyphenyl)-4-morpholin-4-yl-7H-pyrrolo[2,3-h]quinazolin-7-yl]sulfonyl}piperidine-1-carboxylate], the IC50 is 245 nM in experiment [2], 5.75 µM in experiment [3] and 2250 nM in experiment [4].

Regarding `CN(C)CCn1ccc2c3nc(-c4cccc(O)c4)nc(N4CCOCC4)c3ccc21` [Example 32, 3-{7-[2-(dimethylamino)ethyl]-4-morpholin-4-yl-7H-pyrrolo[2,3-h]quinazolin-2-yl}phenol], the IC50 amounted to 322 nM in experiment [2], 3.62 µM in experiment [3] and 4550 nM in experiment [4].

With `Cn1ccc2c3nc(-c4ccc(NC(=O)Nc5ccncc5)cc4)nc(N4CCOCC4)c3ccc21` [Example 11, 1-[4-(7-methyl-4-morpholin-4-yl-7H-pyrrolo[2,3-h]quinazolin-2-yl)phenyl]-3-pyridin-4-ylurea], the results for the IC50 in experiment [2], in experiment [3] and in experiment [4] were 101 nM, 0.437 µM and 3.7 nM, respectively.

Turning to `O=S(=O)(c1ccccc1)n1ccc2c3nc(-c4cccc5[nH]ncc45)nc(N4CCOCC4)c3ccc21` [Example 72, 2-(1H-indazol-4-yl)-4-morpholin-4-yl-7-(phenylsulfonyl)-7H-pyrrolo[2,3-h]quinazoline], the half-inhibitory concentration (IC50) in experiment [2] came out at 4010 nM; in experiment [3] it was 5.16 µM; in experiment [4], 3250 nM.

As to `COc1ccc(-c2nc(N3CCOCC3)c3ccc4c(ccn4C)c3n2)cn1` [Example 47, 2-(6-methoxypyridin-3-yl)-7-methyl-4-morpholin-4-yl-7H-pyrrolo[2,3-h]quinazoline], the IC50 in experiment [2] is above 10000 nM; in experiment [3], above 10 µM; in experiment [4] it was 2050 nM.

Turning to `CC(C)(C)OC(=O)Cn1ccc2c3nc(-c4ccc(N)nc4)nc(N4CCOCC4)c3ccc21` [Example 60, tert-butyl [2-(6-aminopyridin-3-yl)-4-morpholin-4-yl-7H-pyrrolo[2,3-h]quinazolin-7-yl]acetate], the results for the IC50 in experiment [2], in experiment [3] and in experiment [4] were 775 nM, 4.89 µM and 1350 nM, respectively.

Turning to `CS(=O)(=O)n1ccc2c3nc(-c4cnc(N)nc4)nc(N4CCOCC4)c3ccc21` [Example 73, 5-[7-(methylsulfonyl)-4-morpholin-4-yl-7H-pyrrolo[2,3-h]quinazolin-2-yl]pyrimidin-2-amine], the half-inhibitory concentration (IC50) in experiment [2] stood at 62 nM; in experiment [3], 0.198 µM; in experiment [4], 63 nM.

For `CN(C)S(=O)(=O)Nc1cccc(-c2nc(N3CCOCC3)c3ccc4c(ccn4C)c3n2)c1` [Example 55, N,N-dimethyl-N′-[3-(7-methyl-4-morpholin-4-yl-7H-pyrrolo[2,3-h]quinazolin-2-yl)phenyl]sulfamide], the results for the half-inhibitory concentration (IC50) in experiment [2], in experiment [3] and in experiment [4] were 4340 nM, 6.16 µM and 525 nM, respectively.

Regarding `O=S(=O)(C1CCNCC1)n1ccc2c3nc(-c4cccc(O)c4)nc(N4CCOCC4)c3ccc21` [Example 67, 3-[4-morpholin-4-yl-7-(piperidin-4-ylsulfonyl)-7H-pyrrolo[2,3-h]quinazolin-2-yl]phenol], the half-maximal inhibitory concentration (IC50) in experiment [2] was determined as 231 nM; in experiment [3] it was 1.58 µM; in experiment [4] it was 670 nM.

In the case of `Cn1ccc2c3nc(-c4ccc(O)nc4)nc(N4CCOCC4)c3ccc21` [Example 48, 5-(7-methyl-4-morpholin-4-yl-7H-pyrrolo[2,3-h]quinazolin-2-yl)pyridin-2-ol], the concentration for half-maximal inhibition (IC50) was above 10000 nM in experiment [2], above 10 µM in experiment [3] and 7550 nM in experiment [4].

`CS(=O)(=O)n1ccc2c3nc(-c4cccc(O)c4)nc(N4CCOCC4)c3ccc21` [Example 59, 3-[7-(methylsulfonyl)-4-morpholin-4-yl-7H-pyrrolo[2,3-h]quinazolin-2-yl]phenol]: the IC50 in experiment [2] was 63 nM; in experiment [3] it was 0.56 µM; in experiment [4] it was 2600 nM.

With `Cn1ccc2c3nc(-c4cc(O)ccc4Cl)nc(N4CCOCC4)c3ccc21` [Example 53, 4-chloro-3-(7-methyl-4-morpholin-4-yl-7H-pyrrolo[2,3-h]quinazolin-2-yl)phenol], the figures for the half-inhibitory concentration (IC50) in experiment [2], in experiment [3] and in experiment [4] were 214 nM, 1.01 µM and 910 nM, respectively.

With `C=CCC(O)c1cccc(-c2nc(N3CCOCC3)c3ccc4c(ccn4C)c3n2)c1` (stereo not shown) [Example 27, 1-[3-(7-methyl-4-morpholin-4-yl-7H-pyrrolo[2,3-h]quinazolin-2-yl)phenyl]but-3-en-1-ol], the half-maximal inhibitory concentration (IC50) is 6590 nM in experiment [2], 6.66 µM in experiment [3] and 2800 nM in experiment [4].

In the case of `Cn1ccc2c3nc(-c4cccc(C=O)c4)nc(N4CCOCC4)c3ccc21` [Example 23, 3-(7-methyl-4-morpholin-4-yl-7H-pyrrolo[2,3-h]quinazolin-2-yl)benzaldehyde], the half-maximal inhibitory concentration (IC50) in experiment [2] was determined as 5330 nM; in experiment [3], 9.5 µM; in experiment [4], 320 nM.
